The values below come from patent publication US10385022B2, “3-amino-pyridines as GPBAR1 agonists” (HOFFMANN-LA ROCHE INC., priority 2011, dated 2019).

For the experiment, the target named is human GPBAR1 receptor (Homo sapiens (Human), UniProt Q8TDU6). As to the kind of experiment: functional cAMP assay in CHO-dhfr(minus) cells expressing human GPBAR1 receptors. It is filed as cell-based. The note with it: CHO-dhfr(minus) cells expressing human GPBAR1, 30 min at 30° C. Here is the method: The final clone was verified by DNA sequence analysis. The plasmid was transfected into CHO cells deficient in dihydrofolate reductase activity (CHO-dhfr-) using Lipofectamine plus (Invitrogen). Clones were isolated in limited dilution conditions and identified by activities in the cAMP assay using lithocholic acid as agonist.
EC50 values were determined using Activity Base analysis (ID Business Solution, Limited). […] Specificity for GPBAR1 was tested in non-transfected CHO cells in the same assay as above.

Where a name gives a salt, the structure may show the parent alone.

Sequence of human GPBAR1 receptor (Q8TDU6 whole entry): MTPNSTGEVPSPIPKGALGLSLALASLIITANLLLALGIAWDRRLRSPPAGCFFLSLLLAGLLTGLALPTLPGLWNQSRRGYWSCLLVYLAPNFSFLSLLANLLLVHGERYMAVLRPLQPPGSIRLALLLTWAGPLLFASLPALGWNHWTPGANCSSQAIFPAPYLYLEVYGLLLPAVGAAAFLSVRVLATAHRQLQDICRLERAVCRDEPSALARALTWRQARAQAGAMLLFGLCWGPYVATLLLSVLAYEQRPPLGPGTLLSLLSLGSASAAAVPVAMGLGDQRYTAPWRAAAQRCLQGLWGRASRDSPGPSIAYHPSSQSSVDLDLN

In the case of `COc1cc(F)ccc1-c1ccncc1N(CC1CCCO1)C(=O)c1cc(C(F)(F)F)cc(S(C)(=O)=O)c1` (single isomer, unassigned; (+)) [Example 232, (+)-N-[4-(4-Fluoro-2-methoxy-phenyl)-pyridin-3-yl]-3-methanesulfonyl-N-[1-(tetrahydro-furan-2-yl)methyl]-5-trifluoromethyl-benzamide], a half-maximal effect (EC50) was put at 335 nM.
`COc1cc(F)ccc1-c1ccncc1N(CC1CCCCO1)C(=O)c1cc(C(F)(F)F)cc(S(C)(=O)=O)c1` (single isomer, unassigned; (+)) [Example 291, (+)-N-[4-(4-Fluoro-2-methoxy-phenyl)-pyridin-3-yl]-3-methanesulfonyl-N-[1-(tetrahydro-pyran-2-yl)methyl]-5-trifluoromethyl-benzamide] showed an EC50 of 2840 nM.
Next, `COc1cc(F)ccc1-c1ccncc1N(CC1CCCO1)C(=O)c1cc(C(F)(F)F)cc(S(C)(=O)=O)c1` (single isomer, unassigned; (-)) [Example 233, (−)-N-[4-(4-Fluoro-2-methoxy-phenyl)-pyridin-3-yl]-3-methanesulfonyl-N-[1-(tetrahydro-furan-2-yl)methyl]-5-trifluoromethyl-benzamide]: 54 nM; `COc1cc(F)ccc1-c1ccncc1N(CC1CCCCO1)C(=O)c1cc(C(F)(F)F)cc(S(C)(=O)=O)c1` (single isomer, unassigned; (-)) [Example 290, (−)-N-[4-(4-Fluoro-2-methoxy-phenyl)-pyridin-3-yl]-3-methanesulfonyl-N-[1-(tetrahydro-pyran-2-yl)methyl]-5-trifluoromethyl-benzamide]: 1740 nM; `Cc1ccccc1-c1ccncc1N(C)C(=O)c1cc(C(F)(F)F)cc(C(F)(F)F)c1` [Example 1, N-Methyl-N-(4-o-tolyl-pyridin-3-yl)-3,5-bis-trifluoromethyl-benzamide]: 22 nM.
The molecule `Cc1ccccc1-c1ccncc1N(C)C(=O)c1cccc(C(F)(F)F)c1` [Example 2, N-Methyl-N-(4-o-tolyl-pyridin-3-yl)-3-trifluoromethyl-benzamide] displayed an EC50 of 727 nM.
The molecule `Cc1ccccc1-c1ccncc1N(C)C(=O)c1cccc(Cl)c1` [Example 3, N-Methyl-N-(4-o-tolyl-pyridin-3-yl)-3-chloro-benzamide] returned a concentration for a half-maximal effect (EC50) of 902 nM.
In the case of `Cc1ccccc1-c1ccncc1N(C)C(=O)c1cc(C(F)(F)F)ccc1F` [Example 4, 2-Fluoro-N-methyl-N-(4-o-tolyl-pyridin-3-yl)-5-trifluoromethyl-benzamide], a half-maximal effect (EC50) was put at 247 nM. This EC50 is about 3.7-fold lower than that of the molecule before.
`Cc1ccccc1-c1ccncc1N(C)C(=O)c1ccc(F)c(C(F)(F)F)c1` [Example 5, 4-Fluoro-N-methyl-N-(4-o-tolyl-pyridin-3-yl)-5-trifluoromethyl-benzamide] showed an EC50 of 112 nM. Compared with the last molecule, the EC50 is about 2.2-fold lower.
Next, `Cc1ccccc1-c1ccncc1N(C)C(=O)c1cc(F)cc(F)c1` [Example 9, 3,5-Difluoro-N-methyl-N-(4-o-tolyl-pyridin-3-yl)-benzamide]: 1230 nM.
Next, `Cc1ccccc1-c1ccncc1N(C)C(=O)c1ccc(Cl)c(Cl)c1` [Example 10, 3,4-Dichloro-N-methyl-N-(4-o-tolyl-pyridin-3-yl)-benzamide]: 238 nM.
`Cc1ccccc1-c1ccncc1N(C)C(=O)c1ccc(F)c(Cl)c1` [Example 11, 3-Chloro-4-fluoro-N-methyl-N-(4-o-tolyl-pyridin-3-yl)-benzamide]: a half-maximal response (EC50) required 406 nM.
`Cc1ccccc1-c1cc(Cl)ncc1N(C)C(=O)c1cc(C(F)(F)F)cc(C(F)(F)F)c1` [Example 12, N-(6-Chloro-4-o-tolyl-pyridin-3-yl)-N-methyl-3,5-bis-trifluoromethyl-benzamide] had an EC50 of 349 nM.
In turn, `Cc1ccccc1-c1cc(Cl)ncc1N(C)C(=O)c1cc(Cl)cc(Cl)c1` [Example 13, 3,5-Dichloro-N-(6-chloro-4-o-tolyl-pyridin-3-yl)-N-methyl-benzamide] registered an EC50 of 580 nM.
Turning to `COc1cc(-c2ccccc2C)c(N(C)C(=O)c2cc(C(F)(F)F)cc(C(F)(F)F)c2)cn1` [Example 14, N-(6-Methoxy-4-o-tolyl-pyridin-3-yl)-N-methyl-3,5-bis-trifluoromethyl-benzamide], the EC50 came out at 395 nM.
Next, `CNc1cc(-c2ccccc2C)c(N(C)C(=O)c2cc(C(F)(F)F)cc(C(F)(F)F)c2)cn1` [Example 15, N-Methyl-N-(6-methylamino-4-o-tolyl-pyridin-3-yl)-3,5-bis-trifluoromethyl-benzamide]: 323 nM; `Cc1ccccc1-c1cc(N)ncc1N(C)C(=O)c1cc(C(F)(F)F)cc(C(F)(F)F)c1` [Example 16]: 184 nM; `Cc1ccccc1-c1cc(N2CCN(S(C)(=O)=O)CC2)ncc1N(C)C(=O)c1cc(C(F)(F)F)cc(C(F)(F)F)c1` [Example 17, N-[6-(4-Methanesulfonyl-piperazin-1-yl)-4-o-tolyl-pyridin-3-yl]-N-methyl-3,5-bis-trifluoromethyl-benzamide]: 336 nM.
The molecule `COCCN(C)c1cc(-c2ccccc2C)c(N(C)C(=O)c2cc(C(F)(F)F)cc(C(F)(F)F)c2)cn1` [Example 18, N-{6-[(2-Methoxy-ethyl)-methyl-amino]-4-o-tolyl-pyridin-3-yl}-N-methyl-3,5-bis-trifluoro methyl-benzamide] gave a concentration for a half-maximal effect (EC50) of 850 nM.
Take `Cc1ccccc1-c1cc(C#N)ncc1N(C)C(=O)c1cc(C(F)(F)F)cc(C(F)(F)F)c1` [Example 19, N-(6-Cyano-4-o-tolyl-pyridin-3-yl)-N-methyl-3,5-bis-trifluoromethyl-benzamide]: the 50% effective concentration (EC50) was 340 nM.
As to `CC1CCCCN1c1ccncc1N(C)C(=O)c1cc(C(F)(F)F)cc(C(F)(F)F)c1` (centres unmarked) [Example 20, N-Methyl-N-(2-methyl-3,4,5,6-tetrahydro-2H-[1,4′]bipyridinyl-3′-yl)-3,5-bis-trifluoromethyl-benzamide], a half-maximal response (EC50) required 143 nM.
For the molecule `CC1CCCCN1c1ccncc1N(C)C(=O)c1cc(Cl)cc(Cl)c1` (centres unmarked) [Example 21, 3,5-Dichloro-N-methyl-N-(2-methyl-3,4,5,6-tetrahydro-2H-[1,4′]bipyridinyl-3′-yl)-benzamide hydrochloride salt], the EC50 amounted to 388 nM.
Next, `COc1cc(F)ccc1-c1ccncc1N(Cc1ncco1)C(=O)c1cc(C(F)(F)F)cc(S(C)(=O)=O)c1` [Example 22, N-[4-(4-Fluoro-2-methoxy-phenyl)-pyridin-3-yl]-3-methanesulfonyl-N-oxazol-2-ylmethyl-5-trifluoromethyl-benzamide]: 35 nM; `Cc1cc(F)ccc1-c1ccncc1N(C)C(=O)c1cc(C(F)(F)F)cc(C(F)(F)F)c1` [Example 23, N-[4-(4-Fluoro-2-methyl-phenyl)-pyridin-3-yl]-N-methyl-3,5-bis-trifluoromethyl-benzamide]: 38 nM.
The molecule `Cc1cc(F)ccc1-c1ccncc1N(C)C(=O)c1cc(Cl)cc(Cl)c1` [Example 24, 3,5-Dichloro-N-[4-(4-fluoro-2-methyl-phenyl)-pyridin-3-yl]-N-methyl-benzamide] registered an EC50 of 146 nM.
Consider `CN(C(=O)c1cc(C(F)(F)F)cc(C(F)(F)F)c1)c1cnccc1-c1ccccc1F` [Example 25, N-[4-(2-Fluoro-phenyl)-pyridin-3-yl]-N-methyl-3,5-bis-trifluoromethyl-benzamide], for which the response was half-maximal at 14 nM (EC50).
`Cc1ccc(-c2ccncc2N(C)C(=O)c2cc(C(F)(F)F)cc(C(F)(F)F)c2)c(C)c1` [Example 26, N-[4-(2,4-Dimethyl-phenyl)-pyridin-3-yl]-N-methyl-3,5-bis-trifluoromethyl-benzamide] came in with a half-maximal effective concentration (EC50) of 686 nM.
On to `COc1ccc(-c2ccncc2N(C)C(=O)c2cc(C(F)(F)F)cc(C(F)(F)F)c2)c(C)c1` [Example 27, N-[4-(4-Methoxy-2-methyl-phenyl)-pyridin-3-yl]-N-methyl-3,5-bis-trifluoromethyl-benzamide], for which the EC50 is 1050 nM.
Next, `CN(C(=O)c1cc(C(F)(F)F)cc(C(F)(F)F)c1)c1cnccc1-c1ccccc1C(F)(F)F` [Example 28, N-Methyl-3,5-bis-trifluoromethyl-N-[4-(2-trifluoromethyl-phenyl)-pyridin-3-yl]-benzamide]: 863 nM; `COc1ccccc1-c1ccncc1N(C)C(=O)c1cc(C(F)(F)F)cc(C(F)(F)F)c1` [Example 29, N-[4-(2-Methoxy-phenyl)-pyridin-3-yl]-N-methyl-3,5-bis-trifluoromethyl-benzamide]: 11 nM; `Cc1cc(Cl)ccc1-c1ccncc1N(C)C(=O)c1cc(C(F)(F)F)cc(C(F)(F)F)c1` [Example 30, N-[4-(4-Chloro-2-methyl-phenyl)-pyridin-3-yl]-N-methyl-3,5-bis-trifluoromethyl-benzamide]: 1620 nM.
Next, `CN(C(=O)c1cc(C(F)(F)F)cc(C(F)(F)F)c1)c1cnccc1-c1ccccc1OC(F)(F)F` [Example 31, N-Methyl-N-[4-(2-trifluoromethoxy-phenyl)-pyridin-3-yl]-3,5-bis-trifluoromethyl-benzamide]: 29 nM.
Next, `COc1ncccc1-c1ccncc1N(C)C(=O)c1cc(C(F)(F)F)cc(C(F)(F)F)c1` [Example 32, N-(2-Methoxy-[3,4′]bipyridinyl-3′-yl)-N-methyl-3,5-bis-trifluoromethyl-benzamide]: 9 nM; `Cc1ncccc1-c1ccncc1N(C)C(=O)c1cc(C(F)(F)F)cc(C(F)(F)F)c1` [Example 33, N-Methyl-N-(2-methyl-[3,4′]bipyridinyl-3′-yl)-3,5-bis-trifluoromethyl-benzamide]: 349 nM.
`Cc1cnccc1-c1ccncc1N(C)C(=O)c1cc(C(F)(F)F)cc(C(F)(F)F)c1` [Example 34, N-Methyl-N-(3′-methyl-[4,4′]bipyridinyl-3-yl)-3,5-bis-trifluoromethyl-benzamide] had a 50% effective concentration (EC50) of 502 nM.

Broadly, the EC50 is the concentration that produces a half-maximal response.
